From article PMC11206029, “Identification and Characterization of Cannabichromene’s Major Metabolite Following Incubation with Human Liver Microsomes” (Metabolites, 2024)
Like-named read-outs stand apart in the source and are kept apart here.

Legend:
human recombinant CB2R = human recombinant CB2R (Homo sapiens, UniProt P34972); test: Competitive radioligand binding assay, displacement of [^3H]CP 55,940; settings: for Hill Slope: CB2R, means ± S.E.M. of four to ten experiments
human recombinant CB1R = human recombinant CB1R (Homo sapiens, UniProt P21554); test: biochemical; assay type: binding
microglia = system: microglia; parameters: method as in PMID 38477310; settings: microglia following lipopolysaccharide challenge; cited from earlier work
[1] = parameters: method as in PMID 1806943; settings: hamster-derived liver microsomes; cited from earlier work
[2] = parameters: method as in PMID 1806943; settings: gerbil-derived liver microsomes; cited from earlier work
[3] = parameters: method as in PMID 37574147; settings: human hepatic biotransformation; cited from earlier work
[4] = Incubation of CBC with pooled human liver microsomes, metabolite identification; assay type: in vitro ADME
Procedure: To maximize the yield of CBC metabolites, parameters including incubation time, HLM protein concentration, and CBC concentration were optimized, and representative extracted ion chromatograms are available in the Supplementary Materials (Section S1.2). The parameters resulting in the highest yield of metabolites were determined to be 0.5 mg/mL HLM, 50 µg/mL CBC, and a 40 min incubation time. Prior to adding the drug, the NADPH-generating system was incubated on a shaker set to 150 rpm at a temperature of 37 ± 2 °C for 10 min (C24 Incubator Shaker, New Brunswick Scientific, Edison, NJ, USA). […]
The HPLC components for the semi-preparative isolation of the major CBC metabolite were as follows: G1322A degasser, G1312A binary pump, G1329B 1260 ALS, G1315B DAD, G1364B fraction collector (all Agilent Technologies, Santa Clara, CA, USA), and an external column compartment ThermaSphere (Phenomenex, Torrance, CA, USA). […] UV absorbance was monitored at 210 nm and 231 nm. […] Isolated metabolites and controls were analyzed utilizing both LC-MS/MS and GC-MS/MS as described below. […]
Samples were derivatized and analyzed using GC-MS/MS based on the previous literature. […] Samples were cooled, transferred to autosampler vials and immediately analyzed via GC-MS/MS. […]

[5] = parameters: method as in PMID 1806943; settings: cat-derived liver microsomes; cited from earlier work

Sequence of human recombinant CB2R (P34972 whole entry): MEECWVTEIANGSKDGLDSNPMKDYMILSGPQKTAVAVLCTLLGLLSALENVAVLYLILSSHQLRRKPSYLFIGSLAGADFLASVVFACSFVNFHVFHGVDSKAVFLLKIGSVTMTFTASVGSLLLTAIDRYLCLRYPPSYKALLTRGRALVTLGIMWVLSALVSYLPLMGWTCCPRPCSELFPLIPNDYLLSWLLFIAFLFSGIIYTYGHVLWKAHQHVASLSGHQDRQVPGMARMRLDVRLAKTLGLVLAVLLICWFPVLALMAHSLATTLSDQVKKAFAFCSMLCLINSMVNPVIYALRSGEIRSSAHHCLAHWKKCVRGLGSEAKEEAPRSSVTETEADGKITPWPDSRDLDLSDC
Sequence of human recombinant CB1R (P21554 whole entry): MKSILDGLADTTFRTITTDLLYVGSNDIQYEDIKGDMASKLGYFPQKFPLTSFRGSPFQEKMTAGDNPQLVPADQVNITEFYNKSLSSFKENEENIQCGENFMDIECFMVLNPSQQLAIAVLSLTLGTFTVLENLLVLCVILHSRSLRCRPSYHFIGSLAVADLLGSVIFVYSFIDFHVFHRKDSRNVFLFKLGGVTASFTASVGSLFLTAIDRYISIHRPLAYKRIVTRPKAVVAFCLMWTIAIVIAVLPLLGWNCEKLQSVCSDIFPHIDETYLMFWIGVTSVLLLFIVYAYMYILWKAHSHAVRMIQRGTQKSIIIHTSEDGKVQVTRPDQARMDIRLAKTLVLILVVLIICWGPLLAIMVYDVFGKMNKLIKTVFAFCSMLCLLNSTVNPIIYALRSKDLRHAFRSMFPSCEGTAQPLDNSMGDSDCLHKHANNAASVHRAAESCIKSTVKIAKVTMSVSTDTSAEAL

With `CCCCCc1cc2c3c(c1)OC1(C)CCC(C3C1O)C(C)(C)O2` (stereo not drawn) [2′-hydroxycannabicitran] the Ki (human recombinant CB2R) was > 10 µM and the Ki (human recombinant CB1R) was > 10 µM.
In the case of `CCCCCc1cc(O)c2c(c1)OC(C)(CCC(O)C(C)(C)O)C=C2` (stereo not drawn) [6′, 7′-dihydroxy-CBC], the “Inflammatory phenotype by nitric oxide production” value (microglia) is listed as “reduction in nitric oxide production”.
In the case of `CCCCCc1cc(O)c2c(c1)OC(C)(CC/C=C(\C)CO)C=C2` (stereo not drawn) [8′-hydroxy-CBC], the “Inflammatory phenotype by nitric oxide production” value (microglia) is listed as “pro-inflammatory”.
For `CCCCCc1cc(O)c2c(c1)OC(C)(CCC=C(C)C)C=C2` (stereo not drawn) [CBC, Cannabichromene], the “Epoxidation across the alkene on the branched aliphatic chain, share of the total amount of metabolites generated” value (“Epoxidation across the alkene” for short) [1] is listed as 10%, the “Epoxidation across the alkene” value [2] is listed as 12% and the Ki (human recombinant CB2R) is listed as 0.301 ± 0.072 µM. The “Hill Slope” value (human recombinant CB2R) was −1.32 ± 0.36, the “Hydroxylation, share of all CBC metabolites produced” value [3] was 31% and the “Monoglucuronides, share of all CBC metabolites produced” value [3] was ~50%. The “Major metabolite generated by HLMs” value ([4]; 0.5 mg/mL HLM, 50 µg/mL CBC, 40 min incubation, NADPH-generating system) was 2′-hydroxycannabicitran, the “Formation of carboxylic acid metabolites” value ([4]; incubation with HLM, optimized conditions) was “did not observe any carboxylic acid metabolites” and the Ki (human recombinant CB1R) was 3.5 ± 1.2 µM. For the same compound, the “Hill Slope” value (human recombinant CB1R; CB1R, means ± S.E.M. of four to ten experiments) was −0.27 ± 0.51 and the “Epoxidation across the alkene” value [5] was 42%.
With `CCCCCc1cc2c3c(c1)OC(C)(C)C1CCC(C)(CC31)O2` (stereo not drawn) [CBT-C, cannabicitran, reference compound] the Ki (human recombinant CB2R) was 4.2 ± 0.41 µM, the “Hill Slope” value (human recombinant CB2R) was −1.15 ± 0.14 and the Ki (human recombinant CB1R) was > 10 µM.
